Columns and labels:
[1] = system: Jurkat cells; assay: Cell adhesion assay by coating; assay type: cell-based, human; conditions: 50 μg/well
Procedure: The surface area per well is 0.3 cm^2.
The assay samples (adhesamine (1), Type I collagen, poly-L-lysine hydrochloride, poly-L-ornithine hydrobromide, and fibronectin) were adjusted in concentration by being diluted with 10 mM PBS containing 1% DMSO. […] Thereafter, the wells were washed with Milli-Q water twice. 100 μL of Jurkat cell suspension (1×10^6 cells/mL) was added to each of coated wells. After 5-hour incubation at 37° C., non-adhered cells were removed by washing each well with PBS twice, and attached cells were counted with a Neubauer counting chamber (Digital Bio).

[2] = system: Jurkat cells; assay: Microinjection of Alexa Fluor 594; assay type: cell-based, human; conditions: 5 μg/mL reagent
Procedure: The concentration of the reagents used was 5 μg/mL.
The solutions of adhesamine (1), Type I collagen, poly-L-lysine hydrochloride, and fibronectin were prepared by diluting with PBS containing 1% (v/v) DMSO. 10 μL of each solution (1 mg/mL) was added to glass bottom culture dishes (35 mm uncoated dish). 2 mL of cell suspension in a culture medium was added to each well at a density of 2×10^5 cells/mL. After 14-hour incubation at 37° C., Alexa Fluor 594 (Molecular Probes, USA) at a concentration of 5 mg/mL was injected into Jurkat cells by using a CI-2000 automated cell injection system (Fujitsu, Japan). Success rates of the microinjection were evaluated by direct observation of the fluorescent cells through a fluorescent-microscopic window of the injection system. The data shown are means±SD for a minimum of three experiments. 20 cells were injected in each experiment.

[3] = system: HepG2 cells; assay: Cell adhesion assay by addition, HepG2 cells; assay type: cell-based; conditions: 0.6-60 μM in medium, 3-hour incubation, reattachment after trypsin treatment
Procedure: HepG2 cells were cultured in MEM supplemented with 10% fetal bovine serum (FBS) and 1% penicillin/streptomycin at 37° C. under 5% CO2. Jurkat cells were cultured in RPMI-1640 supplemented with 10% fetal bovine serum (FBS) and 1% penicillin/streptomycin at 37° C. under 5% CO2. For the screening of small molecule compounds, 100 μL of HepG2 suspension (2×10^5 cells/mL) was plated into 96-well plates supplied with each compound at a concentration of 20 μg/mL. After 3, 16, and 24 hours, the cells were subjected to microscopic observation to examine phenotypic changes. CHO K1 cells and CHO mutant cell lines were maintained in Ham's F-12 medium supplemented with 7.5% fetal bovine serum.
1 μL each of an aqueous solution of adhesamine (1), Type I collagen, poly-L-lysine hydrochloride, poly-L-ornithine hydrobromide, and fibronectin at a concentration of 50, 500, and 5000 μg/ml, was added to 96-well plate. […] After 3-hour incubation at 37° C., non-adherent cells were removed by washing each well with PBS three times, and the attached cells were counted with a Neubauer counting chamber (Digital Bio). […] […] Each assay was conducted in triplicate, and the means and standard derivations were calculated. […]

[4] = system: CHO 745 cells; assay: Cell adhesion assay, CHO 745; assay type: cell-based; conditions: CHO 745, 6 μM, vs parental CHO-K1
Procedure: (§1) (A) and (B) show CHO-K1 (wild-type) cells incubated with 1% (v/v) DMSO (A) or 6 μM adhesamine (B). (C) and (D) show CHO 677 incubated with 1% (v/v) DMSO (A) or 6 μM adhesamine (B). […] Cells were seeded onto adhesamine-added or fibronectin-coated plastic wells. The concentrations of adhesamine and fibronectin were 6 μM and 5 μg/mL, respectively. Adhered cells were counted at 5 hours after seeding. Each point represents average±SD.
(§2) For CHO wild-type and CHO mutant cell lines, 100 μL of trypsinized cell suspension in a culture medium was added to each well at a density of 2×10^5 cells/mL. After 5-hour incubation at 37° C., non-adhered cells were removed by washing each well with PBS twice, and the attached cells were counted with a Neubauer counting chamber (Digital Bio). To calculate adhesion rates, the cell numbers before washing were assigned a value of 100%. Each assay was conducted in triplicate, and the means and standard derivations were calculated for a minimum of three independent experiments.

[5] = system: CHO F17 cells; assay: Cell adhesion assay, CHO F17; assay type: cell-based; conditions: CHO F17, 6 μM
Procedure: as §1, §2

[6] = system: HepG2 cells; assay: Visualization of actin cytoskeleton with rhodamine-conjugated phalloidin, HepG2; assay type: cell-based; conditions: HepG2, 6 μM
Procedure: In (A) and (B), the cell growth was determined at 24, 48, and 72 hours after the addition of adhesamine (1) (6 μM). The cell growth in the presence of 1% (v/v) DMSO was assigned a value of 100%. The data shown are means±SD for a minimum of three experiments. (C) to (F) show the rearrangement of actin filaments in HepG2 and Jurkat cells in the presence of adhesamine (6 μM). Brightfield images (C and D) and confocal images (E and F) are shown. HepG2 (C and E) or Jurkat (D and F) cells were plated for 5 hours or 3 hours, respectively, and actin cytoskeletal was visualized using rhodamine-labeled phalloidin.
Jurkat or HepG2 cells were plated onto glass coverslips in the presence of adhesamine (6 μM). They were fixed after 5 or 3 hours, respectively, with 4% paraformaldehyde for 20 minutes. The cell membrane was permeabilized by 5-min treatment with 0.1% Triton X-100 (in PBS). Samples were washed twice with PBS, and actin cytoskeleton was visualized with rhodamine-conjugated phalloidin according to the manufacturer's instructions (Invitrogen). The cell images were captured with a Yokogawa CSU22 confocal fluorescence microscope with 588-nm laser excitation.

[7] = system: CHO 606 cells; assay: Cell adhesion assay, CHO 606; assay type: cell-based; conditions: CHO 606, 6 μM
Procedure: as §1, §2

CSc1nc(Cl)c(C=O)c(N2CC[N+]3(CC2)CC[N+]2(CCN(c4nc(SC)nc(Cl)c4C=O)CC2)CC3)n1 [adhesamine]
cell attachment when applied as coating, compared with coating reagents [1]: greater effect than fibronectin, poly-L-lysine, and poly-L-ornithine
effect on microinjection success [2]: more than type I collagen, poly-L-lysine hydrochloride, and fibronectin
microinjection success rates [2]: ≤ 80%
enhancement of the adhesion of HepG2 cells [3]: up to twofold
response of cell adhesion to adhesamine [4]: less responsive
response of cell adhesion to adhesamine [5]: responded
actin cytoskeleton structure in adhered cells [6]: Actin filament bundles ran in parallel to the cell axis or through cell processes
response of cell adhesion to adhesamine [7]: less responsive
